The source of these data is PubChem BioAssay (NCI).

Structures are written as SMILES.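 Protocol summary: plate cells (96-well), add compound at 5 concentrations, incubate 48 h, interpolate endpoints linearly. TGI marks complete inhibition of growth.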 Where only a bound is given, the exact number is not on record here.

Assay in all cases: growth of human tumour cells (NCI), 48 h
The subject of assay [1] is KM12 colon.
Assay [2] concerns SK-MEL-5 melanoma.
Assay [3] deals with T-47D breast.
In assay [4] the test system is OVCAR-8 ovarian.
Assay [5] concerns SNB-75 CNS.
Assay [6] deals with UACC-257 melanoma.
Assay [7] concerns UACC-62 melanoma.
Assay [8] concerns NCI-H522 lung.
The subject of assay [9] is A549 NSCLC.
The test system of assay [10] is SK-MEL-2 melanoma.

As to `C=C(C(=O)O)[C@@H]1C[C@@H]2O[C@H]1CC(C)=CCC/C(C)=C/CC[C@@]2(C)O`, the TGI in assay [1], in assay [2], in assay [3], in [4], in assay [5] and in assay [6] was > 100 µM throughout. Moreover, the TGI in assay [7], in [8], in assay [9] and in assay [10] was > 100 µM throughout.

Turning to `OCSc1nn(CO)c(=S)s1`, the TGI in assay [1] is 40.4 µM; in assay [2], > 100 µM; in [3], 66.6 µM; in assay [4], 32.8 µM; in assay [5] it was 67.1 µM; in assay [6], 48.1 µM. Also, the TGI in assay [7] is 34.8 µM; in assay [8], 35.3 µM; in assay [9] it was > 100 µM; in assay [10] it was 45.2 µM.

With `COC(=O)[C@@H]1C[C@]2(CC=C(C)C)c3ccccc3N(S(=O)(=O)c3ccccc3)[C@@H]2N1C(=O)OC`, the TGI in [1] was > 100 µM; in [2] it was 26 µM; in assay [3], > 100 µM; in assay [4], 86.5 µM; in assay [5], 38.2 µM; in [6], 51.6 µM. Besides, the TGI in assay [7] was 51.8 µM; in [8] it was 67.3 µM; in assay [9], > 100 µM; in [10], 34.3 µM.

As for `COC(=O)CCC(=O)c1ccc2c(c1)CC1(C2)Cc2ccc3c(c2C1)CCCC3=O` (stereo not given), the TGI is > 85 µM in assay [1]; 22.5 µM in assay [2]; > 100 µM in [3]; > 100 µM in assay [4]; > 100 µM in assay [5]; 54.6 µM in assay [6]. For the same compound, the TGI was > 100 µM in [7], > 73.5 µM in assay [8], > 100 µM in assay [9] and 36.9 µM in assay [10].

Take `CC(C)=CCC[C@H](C)[C@H]1CC[C@@H](C)c2cc(O)c(C)cc21`: the TGI in assay [1] is 37.5 µM; in [2], 30.4 µM; in assay [3], 36.8 µM; in assay [4], 35.6 µM; in assay [5], 38.6 µM; in [6], 31.7 µM. In addition, the TGI in assay [7] came to 27.9 µM; in assay [8], 32.4 µM; in assay [9] it was 32.6 µM; in assay [10] it was 32.4 µM.

As for `O=C(/C(=C/c1cccs1)c1ccccc1)c1ccccc1`, the TGI in assay [1], in assay [2], in assay [3], in [4], in assay [5] and in [6] was > 100 µM throughout. Also, the TGI in [7], in assay [8], in assay [9] and in [10] was > 100 µM in each case.

In the case of `CCOC1SC(SC)=NN1C(=O)C(OC(C)=O)C(OC(C)=O)C(OC(C)=O)C(OC(C)=O)C(=O)N1N=C(SC)SC1OCC` (stereo not given), the TGI in assay [1], in assay [2], in assay [3], in [4], in assay [5] and in assay [6] was > 100 µM in each case. Moreover, the TGI in assay [7], in [8], in assay [9] and in assay [10] was > 100 µM in each case.
